# Experimental data as given in article PMC10296036, “Inhibitory Potential of Synthetic Amino Acid Derivatives against Digestive Enzymes as Promising Hypoglycemic and Anti-Obesity Agents” (Biomolecules, 2023).
# “And” between values parts separate entries of the source, which are not always exact repeats. Identical values can stand only once. Marks after values point to notes of the source that are not given here.
# Legend:
# [1] = biological target: T1, porcine pancreatic α-amylase (Sus scrofa, UniProt P00690); assay: Pancreatic α-amylase inhibition assay (I% and IC50); type: biochemical; conditions: for IC50: mean ± S.E.M., n = 3, starch substrate, 37 °C, pH 7.0
# T1 construct: purchased Sigma-Aldrich
# T1 sequence (P00690 16-511): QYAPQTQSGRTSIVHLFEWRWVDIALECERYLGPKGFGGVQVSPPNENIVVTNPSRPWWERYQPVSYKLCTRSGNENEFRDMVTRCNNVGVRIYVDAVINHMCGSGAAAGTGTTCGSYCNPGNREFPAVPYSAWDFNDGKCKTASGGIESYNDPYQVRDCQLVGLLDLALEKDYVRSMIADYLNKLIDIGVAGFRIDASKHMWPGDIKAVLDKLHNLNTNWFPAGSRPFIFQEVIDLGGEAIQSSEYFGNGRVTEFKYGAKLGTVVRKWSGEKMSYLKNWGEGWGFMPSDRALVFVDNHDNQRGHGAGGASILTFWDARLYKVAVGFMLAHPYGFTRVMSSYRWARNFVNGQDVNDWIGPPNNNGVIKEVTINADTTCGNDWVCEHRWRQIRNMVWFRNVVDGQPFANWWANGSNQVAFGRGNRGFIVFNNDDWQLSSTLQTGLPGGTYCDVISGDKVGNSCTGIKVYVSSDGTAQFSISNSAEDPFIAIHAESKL
# Experimental: (§1) The pancreatic α-amylase inhibition assay was carried out according to Freitas et al. with some modifications. The porcine pancreatic α-amylase (1 mg/mL) was incubated in 50 mM Tris-HCl buffer (pH 7.0) containing 10 mM CaCl2 and 1% starch. […] Afterward, microplates were pre-incubated for 10 min in a water bath at 37 °C. […] The reaction was stopped using an ice bath. All reactions were carried out in triplicate.
# [2] = biological target: T1, porcine pancreatic α-amylase; assay: Kinetic parameters and Lineweaver-Burk analysis, pancreatic α-amylase; type: biochemical; conditions: for Vmax (pancreatic α-amylase in presence of inhibitor) / Slope (Lineweaver-Burk, pancreatic α-amylase): inhibitor concentration: acarbose 387, PPC80 730, PPC82 795, PPC84 870, PPC89 675, PPC101 532 µM; for Vmax (pancreatic α-amylase in presence of inhibitor): no inhibitor Vmax 100.70 ± 0.34; for Slope (Lineweaver-Burk, pancreatic α-amylase): no inhibitor slope 0.59; for Inhibition mechanism on pancreatic α-amylase: from Km, Vmax and Lineweaver-Burk plots
# Experimental: as §1
# (§2) Kinetic parameters were determined using the same experimental conditions as described above for each enzyme. […] The enzyme concentrations were maintained as described above. […] The absorbance values were converted into product concentration (µmol/L) using standard curves of glucose (α-amylase) and p-nitrophenol (pancreatic lipase and α-glucosidase). The value of the initial velocity (v0) of enzymatic reactions was estimated to create the “v0 versus substrate concentration” graph. Kinetic constants (Km and Vmax) and slope were calculated, and the inhibition model was verified using Lineweaver–Burk plots.
# [3] = biological target: T2, porcine pancreatic lipase (Sus scrofa, UniProt P00591); assay: Kinetic parameters and Lineweaver-Burk analysis, pancreatic lipase; type: biochemical; conditions: for Vmax (pancreatic lipase in presence of inhibitor) / Slope (Lineweaver-Burk, pancreatic lipase): inhibitor concentration: orlistat 101 µM, PPC80 146 µM, PPC82 159 µM, PPC84 174 µM; for Vmax (pancreatic lipase in presence of inhibitor): no inhibitor Vmax 68.65 ± 0.41; for Slope (Lineweaver-Burk, pancreatic lipase): no inhibitor slope 2.77; for Inhibition mechanism on pancreatic lipase: from Km, Vmax and Lineweaver-Burk plots
# T2 construct: purchased Sigma-Aldrich
# T2 sequence (P00591 1-450): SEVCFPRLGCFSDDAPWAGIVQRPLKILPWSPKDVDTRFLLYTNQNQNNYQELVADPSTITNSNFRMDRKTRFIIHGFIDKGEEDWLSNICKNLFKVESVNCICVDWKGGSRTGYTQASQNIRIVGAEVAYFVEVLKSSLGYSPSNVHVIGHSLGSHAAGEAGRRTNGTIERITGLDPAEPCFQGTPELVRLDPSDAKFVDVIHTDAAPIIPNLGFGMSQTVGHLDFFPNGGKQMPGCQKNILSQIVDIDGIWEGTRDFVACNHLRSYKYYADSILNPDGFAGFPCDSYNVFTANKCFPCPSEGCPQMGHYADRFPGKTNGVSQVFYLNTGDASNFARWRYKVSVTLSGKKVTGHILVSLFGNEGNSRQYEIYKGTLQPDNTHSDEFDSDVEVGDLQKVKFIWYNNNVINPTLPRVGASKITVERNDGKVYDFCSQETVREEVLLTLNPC
# Experimental: (§3) The pancreatic lipase inhibition assay was performed according to Santos et al. with some modifications. The porcine pancreatic lipase (10 g/L) was incubated in 50 mmol/L Tris-HCl buffer (pH 8.0) containing 10 mM CaCl2 and 25 mM NaCl. The p-nitrophenol palmitate substrate (8 mM) was dissolved in 0.5% w/v Triton-X 100. […] All reactions were carried out in triplicate.
# as §2
# [4] = biological target: T2, porcine pancreatic lipase; assay: Pancreatic lipase inhibition assay (I% and IC50); type: biochemical; conditions: for IC50: mean ± S.E.M., n = 3, substrate p-nitrophenol palmitate, 37 °C, pH 8.0; for Inhibitory action on pancreatic lipase (in words): tested concentration range
# Experimental: as §3
# α-glucosidase [5] = assay: α-Glucosidase inhibition assay (I% and IC50); conditions: for Inhibitory action against α-glucosidase (in words): tested concentration range
# α-glucosidase [6] = assay: Kinetic parameters and Lineweaver-Burk analysis, α-glucosidase; type: biochemical; conditions: for Inhibition mechanism on α-glucosidase: from Km, Vmax and Lineweaver-Burk plots; for Vmax (α-glucosidase in presence of inhibitor) / Slope (Lineweaver-Burk, α-glucosidase): inhibitor concentration: acarbose 387, PPC84 870, PPC89 675, PPC101 532 µM; for Vmax (α-glucosidase in presence of inhibitor): no inhibitor Vmax 62.42 ± 1.14; for Slope (Lineweaver-Burk, α-glucosidase): no inhibitor slope 2.93
# Experimental: [20] with some modifications. […] The reaction was stopped in an ice bath. All enzyme reactions were carried out in triplicate. […] Kinetic parameters were determined using the same experimental conditions as described above for each enzyme. […] The enzyme concentrations were maintained as described above. […] The absorbance values were converted into product concentration (μmol/L) using standard curves of glucose (α-amylase) and p-nitrophenol (pancreatic lipase and α-glucosidase). The value of the initial velocity (v0) of enzymatic reactions was estimated to create the “v0 versus substrate concentration” graph. Kinetic constants (Km and Vmax) and slope were calculated, and the inhibition model was verified using Lineweaver-Burk plots.
# [7] = biological target: T2, porcine pancreatic lipase; design: method as in PMID 12771334; conditions: 100 mg/mL; cited from earlier work
Molecule,Vmax (pancreatic α-amylase in presence of inhibitor) [2],"Slope (Lineweaver-Burk, pancreatic α-amylase) [2]",Vmax (pancreatic lipase in presence of inhibitor) [3],"Slope (Lineweaver-Burk, pancreatic lipase) [3]",IC50 [1],Inhibition mechanism on pancreatic α-amylase [2],Inhibition mechanism on pancreatic lipase [3],IC50 [4],Inhibition mechanism on α-glucosidase (α-glucosidase [6]),Vmax (α-glucosidase in presence of inhibitor) (α-glucosidase [6]),"Slope (Lineweaver-Burk, α-glucosidase) (α-glucosidase [6])",also measured
"C[C@H]1O[C@H](O[C@H]2[C@H](O)[C@@H](O)[C@@H](O[C@H]3[C@H](O)[C@@H](O)C(O)O[C@@H]3CO)O[C@@H]2CO)[C@H](O)[C@@H](O)[C@@H]1N[C@H]1C=C(CO)[C@@H](O)[C@H](O)[C@H]1O (some centres unmarked) [Acarbose, acarbose, reference compound]",100.30 ± 0.89 ^a µM/min,0.66 min⁻¹,,,,,,,,,,inhibition at 620 µM ([1]; 620 µM): ~86%
"CCCCCCCCCCC[C@@H](C[C@@H]1OC(=O)[C@H]1CCCCCC)OC(=O)[C@H](CC(C)C)NC=O [Orlistat, orlistat, reference compound]",,,68.34 ± 0.40 µM/min and 68.34 ± 0.40 ^a µM/min,4.10 min⁻¹,,,,,,,,"inhibition at 807 µM ([4]; 807 µM, read-out: Inhibitory effect on pancreatic lipase activity): 60%"
CCCCCCCCNC(=O)[C@@H](NC(=O)OC(C)(C)C)[C@@H](C)CC [PPC80],91.75 ± 0.48 µM/min,0.89 min⁻¹,68.82 ± 0.57 µM/min and 68.82 ± 0.57 ^a µM/min,4.65 min⁻¹,276 ± 5.21 µM,non-competitive or mixed inhibition mechanism,competitive mechanism,475 ± 8.25 µM,,,,"inhibition at 730 µM ([1]; 730 µM): ~93%; Inhibitory action against α-glucosidase (in words) (α-glucosidase [5]): did not show inhibitory action; inhibition at 584 µM ([4]; 584 µM, read-out: Inhibitory effect on pancreatic lipase activity): ~65%"
CCCCCCNC(=O)[C@@H](NC(=O)OC(C)(C)C)[C@@H](C)CC [PPC82],99.70 ± 1.20 ^a µM/min,0.72 min⁻¹,69.13 ± 0.57 µM/min and 69.13 ± 0.57 ^a µM/min,5.79 min⁻¹,519 ± 20 µM,competitive-type inhibition mechanism,competitive mechanism,167 ± 6.25 µM,,,,"inhibition at 1590 µM ([1]; 1590 µM): ~94%; Inhibitory action against α-glucosidase (in words) (α-glucosidase [5]): did not show inhibitory action; inhibition at 477 µM ([4]; 477 µM, read-out: Inhibitory effect on pancreatic lipase activity): ~86%"
CC[C@H](C)[C@H](NC(=O)OC(C)(C)C)C(=O)NCCCN [PPC84],94.35 ± 0.51 µM/min,0.80 min⁻¹,62.76 ± 0.3 µM/min and 62.76 ± 0.35 µM/min,3.19 min⁻¹,493 ± 11 µM,non-competitive or mixed inhibition mechanism,mixed or non-competitive inhibition mechanism,1020 ± 20.3 µM,competitive inhibitors,62.90 ± 0.60 µM/min and 62.90 ± 0.60 ^a µM/min,4.29 min⁻¹,"inhibition at 870 µM ([1]; 870 µM): ~74%; Inhibition of α-glucosidase (α-glucosidase [5]; 435 µM): ~66%; inhibition at 1392 µM ([4]; 1392 µM, read-out: Inhibitory effect on pancreatic lipase activity): ~62%"
CCCCCCCCCCNC(=O)[C@@H](NC(=O)OC(C)(C)C)[C@@H](C)CC [PPC89],99.73 ± 1.77 ^a µM/min,0.76 min⁻¹,,,171 ± 13.6 µM,competitive-type inhibition mechanism,,,competitive inhibitors,62.30 ± 1.33 µM/min and 62.30 ± 1.33 ^a µM/min,4.11 min⁻¹,"Inhibitory effect on pancreatic α-amylase (in words) ([1]; 405 µM, compared with acarbose 620 µM): same inhibitory effect as acarbose; inhibition at 675 µM ([1]; 675 µM): ~90%; Inhibition of α-glucosidase (α-glucosidase [5]; 674 µM): ~78%; Inhibitory action on pancreatic lipase (in words) [4]: did not show inhibitory action"
CCCCCCCCCCCCNCCCCNC(=O)[C@@H](NC(=O)OC(C)(C)C)[C@@H](C)CC [PPC101],100.00 ± 1.55 ^a µM/min,0.70 min⁻¹,,,162 ± 1.73 µM,competitive-type inhibition mechanism,,,competitive inhibitors,63.09 ± 1.45 µM/min and 63.09 ± 1.45 ^a µM/min,4.94 min⁻¹,"inhibition at 532 µM ([1]; 532 µM): ~86%; Inhibition of α-glucosidase (α-glucosidase [5]; 67 µM): ~64%; IC50 (α-glucosidase [5]; read-out: IC50 α-Glucosidase, mean ± S.E.M., n = 3, substrate p-nitrophenyl-α-D-glucopyranoside, 37 °C, pH 7.0): 51 ± 1.73 µM; Inhibitory action on pancreatic lipase (in words) [4]: did not show inhibitory action"
Polylysine,,,,,,,,,,,,Inhibition of porcine pancreatic lipase activity [7]: 80%
